Common to all, as to assay type: biochemical
Holding throughout (settings): 20 nM

In one assay the target is T1, PDE4A1A (Homo sapiens, UniProt P27815).
T1 construct: purchased BPS 60040
Kind of assay: PDE4 inhibitory activity assay (FAM-cAMP enzymatic reaction), PDE4A1A. Summed up:
(§1)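 Human PDE4A1A, PDE4B1 or PDE4D2 preincubated with compound 15 min at room temperature, then FAM-cAMP substrate added; reaction 30 min at room temperature before stop solution and further 60 min. Fluorescence read on multilabel counter; IC50 fitted from inhibition rates.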

For a further assay, the target named is T2, PDE4B1 (Homo sapiens, UniProt Q07343).
T2 construct: purchased BPS 60041
T2 sequence (Q07343 whole entry): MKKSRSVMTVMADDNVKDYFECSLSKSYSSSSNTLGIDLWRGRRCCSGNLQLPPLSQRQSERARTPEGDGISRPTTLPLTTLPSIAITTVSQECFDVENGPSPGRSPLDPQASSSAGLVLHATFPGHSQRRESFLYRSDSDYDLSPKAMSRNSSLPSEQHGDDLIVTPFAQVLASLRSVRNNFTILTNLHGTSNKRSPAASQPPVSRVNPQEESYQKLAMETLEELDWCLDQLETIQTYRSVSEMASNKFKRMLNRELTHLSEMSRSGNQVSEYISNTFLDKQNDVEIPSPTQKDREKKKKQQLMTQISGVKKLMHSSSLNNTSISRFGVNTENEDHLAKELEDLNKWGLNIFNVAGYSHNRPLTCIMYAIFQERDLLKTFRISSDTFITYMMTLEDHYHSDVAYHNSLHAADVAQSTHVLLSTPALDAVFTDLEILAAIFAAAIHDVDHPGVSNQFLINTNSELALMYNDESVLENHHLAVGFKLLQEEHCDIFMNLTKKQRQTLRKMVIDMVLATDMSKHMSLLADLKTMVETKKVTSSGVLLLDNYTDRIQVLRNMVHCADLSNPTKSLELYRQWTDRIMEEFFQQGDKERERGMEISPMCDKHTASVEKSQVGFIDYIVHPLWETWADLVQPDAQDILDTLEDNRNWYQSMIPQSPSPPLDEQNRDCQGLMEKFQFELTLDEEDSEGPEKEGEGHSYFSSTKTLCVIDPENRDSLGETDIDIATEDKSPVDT
Kind of assay: PDE4 inhibitory activity assay (FAM-cAMP enzymatic reaction), PDE4B1. The gist of the method:
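Each isoform is incubated with test compound for 15 min at room temperature before FAM-cAMP substrate starts a 30-min reaction.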

A further assay addresses PDE4D2 (Homo sapiens, UniProt Q08499). The assay is described as follows: PDE4 inhibitory activity assay (FAM-cAMP enzymatic reaction), PDE4D2. The gist of the method: as §1

T1 sequence (P27815 1-647 isoform P27815-4): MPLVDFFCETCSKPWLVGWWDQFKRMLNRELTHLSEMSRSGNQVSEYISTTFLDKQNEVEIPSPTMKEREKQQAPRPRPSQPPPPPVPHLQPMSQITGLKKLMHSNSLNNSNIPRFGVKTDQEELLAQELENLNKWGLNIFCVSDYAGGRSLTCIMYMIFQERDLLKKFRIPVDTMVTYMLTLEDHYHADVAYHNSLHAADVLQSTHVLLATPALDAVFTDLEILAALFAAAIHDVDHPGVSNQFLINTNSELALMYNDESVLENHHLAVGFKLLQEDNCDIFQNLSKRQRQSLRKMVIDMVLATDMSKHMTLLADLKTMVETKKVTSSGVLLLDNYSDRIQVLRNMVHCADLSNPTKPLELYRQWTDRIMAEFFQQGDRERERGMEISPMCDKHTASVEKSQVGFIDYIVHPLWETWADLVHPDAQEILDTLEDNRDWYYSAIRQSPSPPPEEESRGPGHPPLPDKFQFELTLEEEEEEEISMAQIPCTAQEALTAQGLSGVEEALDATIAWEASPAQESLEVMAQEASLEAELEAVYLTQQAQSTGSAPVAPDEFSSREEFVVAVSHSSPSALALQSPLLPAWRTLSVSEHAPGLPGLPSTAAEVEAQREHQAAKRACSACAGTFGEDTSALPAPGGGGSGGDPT
Chain of PDE4D2 (Q08499 303-809): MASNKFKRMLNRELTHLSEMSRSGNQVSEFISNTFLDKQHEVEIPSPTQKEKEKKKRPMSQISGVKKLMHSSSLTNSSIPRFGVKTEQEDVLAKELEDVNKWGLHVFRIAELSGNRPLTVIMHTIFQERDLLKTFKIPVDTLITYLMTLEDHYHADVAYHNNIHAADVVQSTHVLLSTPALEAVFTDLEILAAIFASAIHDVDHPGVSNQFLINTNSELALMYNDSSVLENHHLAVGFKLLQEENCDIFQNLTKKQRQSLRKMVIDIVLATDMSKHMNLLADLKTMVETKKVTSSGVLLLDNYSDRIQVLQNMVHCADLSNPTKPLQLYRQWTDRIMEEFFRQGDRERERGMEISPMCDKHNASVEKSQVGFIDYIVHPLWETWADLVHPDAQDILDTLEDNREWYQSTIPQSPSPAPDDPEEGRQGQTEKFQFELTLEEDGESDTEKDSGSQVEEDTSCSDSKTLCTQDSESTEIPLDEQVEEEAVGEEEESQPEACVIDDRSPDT

`CCOc1nc([C@H](CS(C)(=O)=O)n2c(=O)[nH]c3c(C)c(-c4ccccn4)cnc32)ccc1OC` [Ex. 18, (R)-3-(1-(6-ethoxy-5-methoxypyridin-2-yl)-2-(methylsulfonyl)ethyl)-7-methyl-6-(pyridin-2-yl)-1H-imidazo[4,5-b]pyridin-2(3H)-one]: the “PDE4 A1 inhibitory effect at 20 nM” value on PDE4A1A is on record as “−”. Also, the “PDE4 B1 inhibitory effect at 20 nM” value on PDE4B1 is recorded as “−”. Also, the “PDE4 D2 inhibitory effect at 20 nM” value at PDE4D2 was “−”.
On to `CCOc1nc([C@@H](CS(C)(=O)=O)n2c(=O)n(C)c3cc(-c4ccccc4C(F)(F)F)ccc32)ccc1OC` [Ex. 147, (S)-1-(1-(6-ethoxy-5-methoxypyridin-2-yl)-2-(methylsulfonyl)ethyl)-5-(2-(trifluoromethyl)phenyl)-3-methyl-1H-benzo[d]imidazol-2(3H)-one], for which the “PDE4 A1 inhibitory effect at 20 nM” value at PDE4A1A was “+”. Moreover, at PDE4B1, the “PDE4 B1 inhibitory effect at 20 nM” value is “+”. The “PDE4 D2 inhibitory effect at 20 nM” value on PDE4D2 was “+”.
Turning to `CCOc1nc([C@@H](CS(C)(=O)=O)n2c(=O)[nH]c3c(-c4ccccc4)cccc32)ccc1OC` [Ex. 206, (S)-1-(1-(6-ethoxy-5-methoxypyridin-2-yl)-2-(methylsulfonyl)ethyl)-4-phenyl-1H-benzo[d]imidazol-2(3H)-one], on PDE4A1A, the “PDE4 A1 inhibitory effect at 20 nM” value is given as “+”. Moreover, the “PDE4 B1 inhibitory effect at 20 nM” value on PDE4B1 is listed as “+”. In addition, the “PDE4 D2 inhibitory effect at 20 nM” value on PDE4D2 is given as “+”.
For the compound `CCOc1nc([C@@H](CS(C)(=O)=O)n2c(=O)[nH]c3c(C)c(-c4cc(F)ccc4OC)cnc32)ccc1OC` [Ex. 44, (S)-6-(5-fluoro-2-methoxyphenyl)-3-(1-(6-ethoxy-5-methoxypyridin-2-yl)-2-(methylsulfonyl)ethyl)-7-methyl-1H-imidazo[4,5-b]pyridin-2(3H)-one], the “PDE4 A1 inhibitory effect at 20 nM” value on PDE4A1A was “+”. For the same compound, the “PDE4 B1 inhibitory effect at 20 nM” value on PDE4B1 is on record as “+”. Besides, at PDE4D2, the “PDE4 D2 inhibitory effect at 20 nM” value is reported as “+”.
As for `CCOc1nc([C@@H](CS(C)(=O)=O)n2c(=O)[nH]c3c(C)c(-c4ccccc4)cnc32)ccc1OC(F)F` [Ex. 61, (S)-3-(1-(5-(difluoromethoxy)-6-ethoxypyridin-2-yl)-2-(methylsulfonyl)ethyl)-7-methyl-6-phenyl-1H-imidazo[4,5-b]pyridin-2(3H)-one], on PDE4A1A, the “PDE4 A1 inhibitory effect at 20 nM” value is given as “+”. Also, the “PDE4 B1 inhibitory effect at 20 nM” value on PDE4B1 was “+”. Besides, the “PDE4 D2 inhibitory effect at 20 nM” value on PDE4D2 is “+”.
On to `CCOc1nc([C@@H](CS(C)(=O)=O)n2c(=O)[nH]c3cc(-c4ccccc4F)cnc32)ccc1OC` [Ex. 74, (S)-3-(1-(6-ethoxy-5-methoxypyridin-2-yl)-2-(methylsulfonyl)ethyl)-6-(2-fluorophenyl)-1H-imidazo[4,5-b]pyridin-2(3H)-one], for which, at PDE4A1A, the “PDE4 A1 inhibitory effect at 20 nM” value is recorded as “+”. Further, on PDE4B1, the “PDE4 B1 inhibitory effect at 20 nM” value is listed as “+”. For the same compound, the “PDE4 D2 inhibitory effect at 20 nM” value on PDE4D2 is “+”.
As to `CCOc1nc([C@@H](CS(C)(=O)=O)n2c(=O)[nH]c3c(C)c(-c4cccc(F)c4F)cnc32)ccc1OC` [Ex. 25, (S)-6-(2,3-difluorophenyl)-3-(1-(6-ethoxy-5-methoxypyridin-2-yl)-2-(methylsulfonyl)ethyl)-7-methyl-1H-imidazo[4,5-b]pyridin-2(3H)-one], the “PDE4 A1 inhibitory effect at 20 nM” value on PDE4A1A was “+”. Moreover, the “PDE4 B1 inhibitory effect at 20 nM” value at PDE4B1 is “+”. Besides, the “PDE4 D2 inhibitory effect at 20 nM” value on PDE4D2 is “+”.
Take `CCOc1nc([C@@H](CS(C)(=O)=O)n2c(=O)n(CCOC)c3cc(-c4ccccn4)ccc32)ccc1OC` [Ex. 198, (S)-1-(1-(6-ethoxy-5-methoxypyridin-2-yl)-2-(methylsulfonyl)ethyl)-3-(2-methoxyethyl)-5-(pyridin-2-yl)-1H-benzo[d]imidazol-2(3H)-one]: on PDE4A1A, the “PDE4 A1 inhibitory effect at 20 nM” value is recorded as “+”. Further, on PDE4B1, the “PDE4 B1 inhibitory effect at 20 nM” value is “+”. Moreover, the “PDE4 D2 inhibitory effect at 20 nM” value at PDE4D2 is recorded as “+”.
Regarding `CCOc1nc([C@@H](CS(C)(=O)=O)n2c(=O)[nH]c3cc(-c4ccccc4C4CC4)cnc32)ccc1OC` [Ex. 87, (S)-6-(2-cyclopropylphenyl)-3-(1-(6-ethoxy-5-methoxypyridin-2-yl)-2-(methylsulfonyl)ethyl)-1H-imidazo[4,5-b]pyridin-2(3H)-one], the “PDE4 A1 inhibitory effect at 20 nM” value on PDE4A1A is “+”. Besides, the “PDE4 B1 inhibitory effect at 20 nM” value at PDE4B1 is on record as “+”. The “PDE4 D2 inhibitory effect at 20 nM” value at PDE4D2 was “+”.
Regarding `CCOc1nc([C@@H](CS(C)(=O)=O)n2c(=O)n(C)c3cc(-c4ccc(F)cc4C)ccc32)ccc1OC` [Ex. 170, (S)-5-(4-fluoro-2-methylphenyl)-1-(1-(6-ethoxy-5-methoxypyridin-2-yl)-2-(methylsulfonyl)ethyl)-3-methyl-1H-benzo[d]imidazol-2(3H)-one], the “PDE4 A1 inhibitory effect at 20 nM” value on PDE4A1A is “+”. Moreover, the “PDE4 B1 inhibitory effect at 20 nM” value at PDE4B1 was “+”. For the same compound, the “PDE4 D2 inhibitory effect at 20 nM” value on PDE4D2 is listed as “+”.
As for `CCOc1nc([C@@H](CS(C)(=O)=O)n2c(=O)n(C)c3cc(-c4cc(C)ccc4F)ccc32)ccc1OC` [Ex. 176, (S)-5-(2-fluoro-5-methylphenyl)-1-(1-(6-ethoxy-5-methoxypyridin-2-yl)-2-(methylsulfonyl)ethyl)-3-methyl-1H-benzo[d]imidazol-2(3H)-one], the “PDE4 A1 inhibitory effect at 20 nM” value at PDE4A1A is recorded as “+”. Moreover, at PDE4B1, the “PDE4 B1 inhibitory effect at 20 nM” value is given as “+”. On PDE4D2, the “PDE4 D2 inhibitory effect at 20 nM” value is listed as “+”.
With `CCOc1nc([C@@H](CS(C)(=O)=O)n2c(=O)n(CC(F)F)c3c(C)c(-c4ccccc4F)cnc32)ccc1OC` [Ex. 56, (S)-1-(2,2-difluoroethyl)-3-(1-(6-ethoxy-5-methoxypyridin-2-yl)-2-(methylsulfonyl)ethyl)-6-(2-fluorophenyl)-7-methyl-1H-imidazo[4,5-b]pyridin-2(3H)-one], the “PDE4 A1 inhibitory effect at 20 nM” value at PDE4A1A is “+”. Moreover, the “PDE4 B1 inhibitory effect at 20 nM” value at PDE4B1 was “+”. In addition, the “PDE4 D2 inhibitory effect at 20 nM” value on PDE4D2 is on record as “+”.
Regarding `CCOc1nc([C@@H](CS(C)(=O)=O)n2c(=O)n(CCOC)c3c(C)c(-c4ccccn4)cnc32)ccc1OC` [Ex. 20, (S)-3-(1-(6-ethoxy-5-methoxypyridin-2-yl)-2-(methylsulfonyl)ethyl)-1-(2-methoxyethyl)-7-methyl-6-(pyridin-2-yl)-1H-imidazo[4,5-b]pyridin-2(3H)-one], the “PDE4 A1 inhibitory effect at 20 nM” value on PDE4A1A was “+”. Also, the “PDE4 B1 inhibitory effect at 20 nM” value on PDE4B1 is “+”. Also, the “PDE4 D2 inhibitory effect at 20 nM” value at PDE4D2 is reported as “+”.
Turning to `CCOc1nc([C@@H](CS(C)(=O)=O)n2c(=O)[nH]c3c(C)c(-c4ccc(F)cc4OC)cnc32)ccc1OC` [Ex. 45, (S)-6-(4-fluoro-2-methoxyphenyl)-3-(1-(6-ethoxy-5-methoxypyridin-2-yl)-2-(methylsulfonyl)ethyl)-7-methyl-1H-imidazo[4,5-b]pyridin-2(3H)-one], the “PDE4 A1 inhibitory effect at 20 nM” value on PDE4A1A was “+”. The “PDE4 B1 inhibitory effect at 20 nM” value at PDE4B1 is “+”. Also, the “PDE4 D2 inhibitory effect at 20 nM” value on PDE4D2 is “+”.
Regarding `CCOc1nc([C@@H](CS(C)(=O)=O)n2c(=O)[nH]c3cc(-c4ccc(F)cc4C)cnc32)ccc1OC` [Ex. 107, (S)-6-(4-fluoro-2-methylphenyl)-3-(1-(6-ethoxy-5-methoxypyridin-2-yl)-2-(methylsulfonyl)ethyl)-1H-imidazo[4,5-b]pyridin-2(3H)-one], the “PDE4 A1 inhibitory effect at 20 nM” value at PDE4A1A was “+”. At PDE4B1, the “PDE4 B1 inhibitory effect at 20 nM” value is listed as “+”. On PDE4D2, the “PDE4 D2 inhibitory effect at 20 nM” value is reported as “+”.
In the case of `CCOc1nc([C@@H](CS(C)(=O)=O)N2C(=O)c3csc(NC(=O)CN(CC)CC)c3C2=O)ccc1OC` [Ex. 229, (S)-2-(diethylamino)-N-(5-(1-(6-ethoxy-5-methoxypyridin-2-yl)-2-(methylsulfonyl)ethyl)-4,6-dioxo-5,6-dihydro-4H-thieno[3,4-c]pyrrol-1-yl)acetamide], the “PDE4 A1 inhibitory effect at 20 nM” value at PDE4A1A was “+”. Moreover, the “PDE4 B1 inhibitory effect at 20 nM” value at PDE4B1 was “+”. Further, the “PDE4 D2 inhibitory effect at 20 nM” value on PDE4D2 is on record as “+”.
In the case of `CCOc1nc([C@@H](CS(C)(=O)=O)n2c(=O)[nH]c3c(C)c(-c4cccc(F)c4C)cnc32)ccc1OC` [Ex. 37, (S)-6-(3-fluoro-2-methylphenyl)-3-(1-(6-ethoxy-5-methoxypyridin-2-yl)-2-(methylsulfonyl)ethyl)-7-methyl-1H-imidazo[4,5-b]pyridin-2(3H)-one], on PDE4A1A, the “PDE4 A1 inhibitory effect at 20 nM” value is “+”. The “PDE4 B1 inhibitory effect at 20 nM” value on PDE4B1 is “+”. Further, the “PDE4 D2 inhibitory effect at 20 nM” value on PDE4D2 was “+”.
As to `CCOc1nc([C@@H](CS(C)(=O)=O)n2c(=O)n(C)c3cc(-c4ccc(OC)cc4F)ccc32)ccc1OC` [Ex. 185, (S)-5-(2-fluoro-4-methoxyphenyl)-1-(1-(6-ethoxy-5-methoxypyridin-2-yl)-2-(methylsulfonyl)ethyl)-3-methyl-1H-benzo[d]imidazol-2(3H)-one], the “PDE4 A1 inhibitory effect at 20 nM” value on PDE4A1A is recorded as “+”. The “PDE4 B1 inhibitory effect at 20 nM” value at PDE4B1 is given as “+”. The “PDE4 D2 inhibitory effect at 20 nM” value on PDE4D2 is “+”.
On to `CCOc1nc([C@H](CS(C)(=O)=O)n2c(=O)[nH]c3c(C)c(-c4ccc(F)cc4)cnc32)ccc1OC` [Ex. 7, (R)-3-(1-(6-ethoxy-5-methoxypyridin-2-yl)-2-(methylsulfonyl)ethyl)-6-(4-fluorophenyl)-7-methyl-1H-imidazo[4,5-b]pyridin-2(3H)-one], for which, on PDE4A1A, the “PDE4 A1 inhibitory effect at 20 nM” value was “−”. Besides, the “PDE4 B1 inhibitory effect at 20 nM” value at PDE4B1 is reported as “−”. Besides, the “PDE4 D2 inhibitory effect at 20 nM” value at PDE4D2 is reported as “−”.
With `CCOc1nc([C@@H](CS(C)(=O)=O)n2c(=O)[nH]c3cc(-c4cccc(F)c4F)cnc32)ccc1OC` [Ex. 90, (S)-6-(2,3-difluorophenyl)-3-(1-(6-ethoxy-5-methoxypyridin-2-yl)-2-(methylsulfonyl)ethyl)-1H-imidazo[4,5-b]pyridin-2(3H)-one], the “PDE4 A1 inhibitory effect at 20 nM” value on PDE4A1A is listed as “+”. Also, the “PDE4 B1 inhibitory effect at 20 nM” value at PDE4B1 was “+”. Besides, on PDE4D2, the “PDE4 D2 inhibitory effect at 20 nM” value was “+”.
